Experiments:
Format in all cases: binding
[1] = target: T1, Obp56d (Bactrocera dorsalis, UniProt A0A6I9V3V6); test: competitive displacement of 1-NPN fluorescence; details: 3-HA 0-16 uM; 2 uM Obp, 50 mM Tris-HCl, pH 7.4; competitive with 1-NPN
T1 construct: gene LOC105221864; recombinant, E. coli Rosetta (DE3), pET-32a(+) vector, designed from CDS; about 29 kDa on SDS-PAGE; anion-exchange purified
T1 sequence (A0A6I9V3V6 19-138): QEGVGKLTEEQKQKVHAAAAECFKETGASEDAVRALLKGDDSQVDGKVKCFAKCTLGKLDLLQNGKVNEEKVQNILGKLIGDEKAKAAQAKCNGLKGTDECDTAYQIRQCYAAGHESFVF

[2] = target: T2, Obp56d-2 (Bactrocera dorsalis, UniProt A0ACM8RD04); test: competitive displacement of 1-NPN fluorescence; details: 3-HA 0-16 uM; 2 uM Obp, 50 mM Tris-HCl, pH 7.4; competitive with 1-NPN
T2 construct: gene LOC105221865; recombinant, E. coli Rosetta (DE3), pET-32a(+) vector, designed from CDS; about 29 kDa on SDS-PAGE; anion-exchange purified
T2 sequence (A0ACM8RD04 19-138): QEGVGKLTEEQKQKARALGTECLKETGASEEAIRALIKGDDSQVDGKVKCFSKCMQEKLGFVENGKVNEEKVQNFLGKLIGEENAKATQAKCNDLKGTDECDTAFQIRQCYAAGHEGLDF

[3] = target: T1, Obp56d; test: fluorescence titration, microplate reader (ex […] nm); details: 2 uM Obp, 2-16 uM 1-NPN, 50 mM Tris-HCl, pH 7.4; fluorescent probe; one-site fit
[4] = target: T2, Obp56d-2; test: as above; details: 2 uM Obp, 2-16 uM 1-NPN, 50 mM Tris-HCl, pH 7.4; fluorescent probe; one-site fit

% reduction of relative fluorescence intensity of the Obp/1-NPN complex [1] | % reduction of relative fluorescence intensity of the Obp/1-NPN complex [2] | Compound | dissociation constant [3] | dissociation constant [4]
> 50% | > 50% | CCC=CCCOC(C)=O [3-HA] |  | 
 |  | c1ccc(Nc2cccc3ccccc23)cc1 [1-NPN] | Then the dissociation constants of the Obp56d and Obp56d-2 were generated | Then the dissociation constants of the Obp56d and Obp56d-2 were generated

Reference: PMC9477868, “Gut bacteria induce oviposition preference through ovipositor recognition in fruit fly” (Communications Biology, 2022)
